# Source: patent US20160375006A1, “USES OF PARALOG-SELECTIVE INHIBITORS OF GSK3 KINASES” (priority 2012, published 2016)
# Entries after “also recorded” stand apart in the source; their conditions may differ. Where two headings read alike, the source gives them in different places.
# Key:
# [1] = for Mouse microsomes, % remaining: after 1 hour; for Microsomal stability 60 min: in mice
# GSK3α [2] = target: T1, GSK3α (Homo sapiens, UniProt P49840); settings: for IC50: read-out: Caliper Assay, GSK3α IC50
# T1 sequence (P49840 whole entry): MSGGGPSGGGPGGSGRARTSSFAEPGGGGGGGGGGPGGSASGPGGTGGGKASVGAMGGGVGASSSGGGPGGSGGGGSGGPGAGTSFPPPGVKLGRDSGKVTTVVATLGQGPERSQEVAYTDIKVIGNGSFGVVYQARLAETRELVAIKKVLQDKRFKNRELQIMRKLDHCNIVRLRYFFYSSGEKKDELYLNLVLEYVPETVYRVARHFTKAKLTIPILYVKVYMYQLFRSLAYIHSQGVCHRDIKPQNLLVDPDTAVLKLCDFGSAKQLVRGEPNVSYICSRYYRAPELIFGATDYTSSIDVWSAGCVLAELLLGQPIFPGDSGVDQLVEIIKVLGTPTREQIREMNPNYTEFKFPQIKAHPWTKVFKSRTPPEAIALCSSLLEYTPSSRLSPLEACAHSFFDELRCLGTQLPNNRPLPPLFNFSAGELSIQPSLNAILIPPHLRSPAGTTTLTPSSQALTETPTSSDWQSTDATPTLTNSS
# Experimental: (§1) Reactions were terminated by the addition of 10 mM EDTA. Substrate and product were separated electrophoretically and fluorescence intensity of the substrate and product was determined by Labchip EZ Reader II (Caliper Life Sciences, MA). The kinase activity was measured as percent conversion. The reactions were performed in duplicate for each sample. […] The results were analyzed by Genedata Assay Analyzer. The percent inhibition was plotted against the compound concentration and the IC50 value was determined from the logistic dose-response curve fitting.
# in vitro = settings: mouse, plasma, pH 7.4
# Experimental: Plasma protein binding was determined by equilibrium dialysis using the Rapid Equilibrium Dialysis (RED) device (Pierce Biotechnology, Rockford, Ill.) for both human and mouse plasma. […] Compounds were incubated at 37° C. for 5 hours with a 250 rpm orbital shake.
# GSK3β [3] = target: T2, GSK3β (Homo sapiens, UniProt P49841); assay: biochemical
# T2 sequence (P49841 whole entry): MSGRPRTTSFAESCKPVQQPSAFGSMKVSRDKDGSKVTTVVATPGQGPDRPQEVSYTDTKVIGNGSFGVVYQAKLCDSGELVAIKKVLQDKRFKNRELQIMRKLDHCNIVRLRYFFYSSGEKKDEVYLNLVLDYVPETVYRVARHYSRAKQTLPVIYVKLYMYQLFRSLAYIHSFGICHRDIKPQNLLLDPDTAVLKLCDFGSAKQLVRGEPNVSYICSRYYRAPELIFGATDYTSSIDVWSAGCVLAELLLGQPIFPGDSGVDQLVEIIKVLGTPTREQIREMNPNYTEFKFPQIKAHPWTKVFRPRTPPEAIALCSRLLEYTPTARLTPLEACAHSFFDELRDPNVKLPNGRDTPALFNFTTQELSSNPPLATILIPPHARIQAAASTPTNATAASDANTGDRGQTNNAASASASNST
# [4] = system: β-catenin nuclear translocation; assay: β-Catenin nuclear localization assay in U2-OS cells; type: cell-based; settings: Homo sapiens, U2OS, read-out: beta-Catenin translocation EC50
# Experimental: U2-OS cells stably expressing two complimentary β-galactosidase fragments (one part on β-Catenin and the other constitutively expressed in the cell nucleus) were maintained in DMEM F12 supplemented with 10% FBS. When β-catenin translocates to the nucleus, the complimentary fragments form a complete β-galactosidase, the amount of which is then quantified by β-galactosidase activity (DiscoveRx). Cells were seeded in a 384-well CulturPlate (Perkin Elmer, Boston, Mass.) with 10,000 per well in 20 μL DMEM F12 containing 10% FCS, 100 U/ml penicillin and 100 m/mL streptomycin. After overnight incubation at 37° C., cells were stimulated with 100 nL test compound/well and then returned to the incubator for 6 h. Cells were disrupted using 12 μL substrate-containing lysis buffer from the PathHunter Detection Kit in the formulation specified by the supplier (DiscoveRx). Plates were incubated in the dark for 1 h at room temperature before measurement of β-galactosidase activity (luminescence) on an EnVision plate reader (PerkinElmer, Waltham, Mass.). Distance between plate and detector was 0.2 mm. Measurement time(s)=0.1; Glow (CT2) correction factor=0.
# GSK3β [5] = target: T2, GSK3β; assay: biochemical; remark: listed apart in the source
# Experimental: 100 nL/well compounds were pinned. […] Incubated at room temperature for 60 minutes. Added 20 μL/well of ADP-glo (Promega, V9103) with Combi, and incubated at room temperature for 40 minutes. Added 40 μL/well of ADP-glo (Promega, V9103) with Combi, incubated at room temperature for 30 minutes. Read on Envision for luminescence.
# TCF/LEF reporter = assay: cells; settings: Homo sapiens, HEK293, read-out: TCF/LEF EC50, HEK293 cells
# Experimental: HEK293-pBARL cells were derived from HEK293 cells and they stably expressed a firefly-luciferase reporter gene driven by a promoter containing 12 copies of TCF/LEF binding sequences. These cells were maintained in DMEM and supplemented with 10% FBS and 1% penicillin-streptomycin (Invitrogen). Reporter gene assays were conducted in anti-biotic free media. […] These cells also contained a renilla-luciferase reporter gene driven by the ubiquitous EF1α promoter as a control. HEK293-pBarl reporter cell lines were seeded into 384-well culture plates (Corning) at 6000 cells/well. 24 hours after plating, cells were treated overnight with relevant compounds and assayed using DualGlo assay kit (Promega). Luminescent intensities were read by EnVision (PerkinElmer, Waltham, Mass.). Firefly luciferase intensity is normalized by renilla luciferase intensity.
# Cells were cultured in 384 well plates to appropriate density (40 μl total plating volume). 24 hours after plating, cells were treated with 100 nl compounds. 24 hours after incubation with compounds (48 hours after plating), assay reagents were prepared by mixing Luciferase Assay solution with Luciferase substrate and Stop & Glo solution to Stop & Glo substrate (extra reagents can be aliquoted and frozen for future use and are stable for at least one freeze/thaw cycle). […] The plate was spun down and 10 minutes were allowed for signal stabilization. Luciferase signal on the Perkin Elmer EnVision using the following parameters: Distance between plate & detector (mm)=0.2; Measurement time(s)=0.1; Glow (CT2) correction factor=0. Once the initial data is secure, a volume of Stop & Glo was added equal to each well equal to the volume of Luciferase reagent added above (If 10 μl Luciferase Reagent was added, 10 μl Stop & Glo was also added). The plate was spun down and 10 minutes were allowed for signal stabilization. The plate was read on the EnVision using the same parameters detailed above.
# phospho-Tau (Ser199) = assay: Tau phosphorylation (Ser199) ELISA in SH-SY5Y cells; type: cell-based; settings: Homo sapiens, read-out: p-Tau Inhibition ELISA EC50 SH-SY5Y
# Experimental: SH-SY5Y cells were maintained in DMEM supplemented with 10% heat-inactivated FBS and 1% penicillin-streptomycin (Invitrogen) unless otherwise stated. ELISA kits for phospho-Tau (Ser199) and total Tau detection were purchased from Invitrogen (KHB0041, and KHB7041 respectively). Briefly, SH-SY5Y cells were seeded at 50,000 cells/200 μL/well in 96 well plates and after overnight incubation, treated with various doses of chemical compounds at 0.2 μL/well. The next day cells were washed with PBS twice before being lysed in 100 μL Lysis buffer/well. 50 μL of cell lysate of each sample was transferred to an ELISA vial coated with the capture antibody, and the mixture was incubated at room temperature for 2 hours, before the supernatant was aspired, and each vial washed four times. 100 μL of detection antibody was then added to each well, incubated for 1 hour, and then washed four times. […] Data were scaled using the positive and neutral controls and fitted for IC50.
# A standard protocol using an immunoassay kit to quantify total Tau protein and phospho-Tau (Ser199) protein in SH-SY5Y human neuroblastoma cells was employed. Human Tau (Total) ELISA kit (#KHB0041) and human phosphor-Tau (Ser199) ELISA kit were purchased from Invitrogen (#KHB7041)
# 50,000 cells were seeded in 200 μl per well in cell culture media (250,000 cells/ml). Cells were incubated overnight @ 37° C. Cells were induced with appropriate doses of inhibitors and incubated for approximately 24 hrs @ 37° C. Cell lysates were harvested by washing cells once with cold PBS and adding 100 μl cold lysis buffer and pipette up and down vigorously. Lysate was transferred to 96 well PCR plate and centrifuged at 4,000 rpm for 20 minutes at 4° C.
# Well strips were warmed and inserted into the frame. 100μ of standard diluent buffer were loaded into ZERO wells, and 100 ul of each standard concentrations (both total Tau and pTau) were loaded into wells in duplicate. Samples were loaded to each well that would be analyzed for total Tau, 85 μl standard diluent buffer and 15 μl cell lysate were added. To each well that will be analyzed for pTau (Ser199) 50 μl standard diluent buffer+50 μl cell lysate were added. Plates were tapped gently on the side to mix. Certain wells were left empty for chromogen blank. Plates were covered and incubated for 2 hours at room temperature. Wells were aspirated 4 times (400 μl diluted wash buffer, left for 30 seconds, aspirated all wells; alternatively used automated plate washer and programmed in a 30 second hold between each cycle). 100 μl of detection antibody solution were added to each well except chromogen blanks. Anti-total Tau was added to wells being analyzed for total Tau, anti-pTau (Ser199) was added to wells being analyzed for pTau (Ser199), and plates were tapped gently on the side to mix. Plates were covered and incubated for 1 hour at room temperature, then wells were aspirated and washed 4 times as described above. 100 μl of anti-rabbit IgG HRP working solution (prepared ahead) were added to each well except chromogen blanks, and plates were covered and incubated for 30 minutes at room temperature, then wells were aspirated and washed 4 times as described above. 100 μl of stabilized chromogen were added to each well (the liquid turned blue). Plates were incubates for 30 minutes at room temperature in the dark, then 100 μl of stop solution were added to each well, and plates were tapped gently on the side to mix. Absorbance of each well was read at 450 nm (within 2 hours of adding stop solution).
# GSK3α [6] = target: T1, GSK3α; assay: biochemical
# Experimental: as §1
# GSK3β [7] = target: T2, GSK3β; settings: GSK3β over GSK3α
# AML cell lines = assay: May-Grunwald Giemsa morphology of AML cell lines; type: cell-based; settings: three days after treatment
# Experimental: On day three post-chemical treatment, cytospin preparations were performed. Changes in cellular morphology were evaluated by May-Grunwald Giemsa staining (Sigma Aldrich). Images were acquired by light microscopy at 400× magnification.
# [8] = Pharmacokinetics and brain distribution in male C57BL/6 mice; settings: single i.p. dose 30 mg/kg (CHIR99021 12.5 mg/kg)
# [9] = system: amphetamine-induced hyperactivity; assay: Amphetamine-induced hyperactivity (AIH) in mice; type: in vivo, mouse; settings: versus vehicle
# HL-60 and U937 cells = assay: GE-HTS 32-gene myeloid differentiation signature; type: cell-based; settings: three days
# From the text: This assay uses ligation-mediated amplification with a fluorescent bead-based detection system to quantify the expression of up to 500 genes in a single well. Two primary scoring methods are used to quantify induction of the 32-gene myeloid differentiation signature. The Summed Score combines expression ratios (marker gene/control gene) by summing them with a sign determined by the expected direction of regulation from ATRA-treated positive controls. The Weighted Summed Score combines expression ratios by summing them with a weight and sign determined by the signal-to-noise ratio of each expression ratio for the positive control (ATRA-treated) and negative control (DMSO-treated) samples. To assess the statistical significance of the differences between these differentiation scores a one-way ANOVA with a Bonferroni correction as a post-hoc test was employed.
# human iPSC-NPCs = assay: Neurogenesis assay (TCF/LEF-luciferase in human iPSC-NPCs); type: cell-based; settings: 24-h treatment
# Experimental: Human neuroprogenitor cells were generated and derived according to methods known in the art. […] Single-cell suspensions were prepared from the human iPSC-NPCs, stably integrated with the TCF/LEF-luciferase reporter, and dispensed into 96- or 384-well plates at the seeding densities of 20,000 or 6,000 per well, respectively, using a Matrix WellMate (Thermo Scientific) microplate dispenser. A 96-well plate format was used for measuring Wnt3a and lithium (lithium chloride solution, 10 M; Fluka, St. Louis, Mo.) dose-response effects, whereas a 384-well plate format was used for all small-molecule probe treatments and chemical screening. The next day, cells were subjected to various 24-h treatments. Just prior to the luminescence reading, the plates were taken out of a 37° C. incubator and equilibrated to room temperature for 30 min before the SteadyGlo reagent (Promega, Madison, Wis.) was dispensed (volume equal 1:1 SteadyGlo:culture medium). Luminescence was measured after a 10-min incubation using an EnVision multilabel plate reader (PerkinElmer, Waltham, Mass.).
# GSK3β [10] = target: T2, GSK3β; assay: Mechanism of action: ATP competition at GSK3β (Lineweaver-Burk, IC50 at two ATP concentrations); type: biochemical; settings: versus ATP
# Experimental: . IC50s were measured against GSK3β at two different ATP concentrations. […]
# PBS stability = type: physicochemical
# Experimental: Stability was determined in the presence of PBS pH 7.4 with 0.1% DMSO. Each compound was prepared in duplicate on six separate plates and allowed to equilibrate at room temperature with a 250 rpm orbital shake for 48 hours. One plate was removed at each time point (0, 2, 4, 8, 24, and 48 hours). […] Additionally, to the remaining material at each time point, acetonitrile was added to force dissolution of compound (to test for recovery of compound). An aliquot of this was also analyzed by UPLC-MS.
# [11] = in mice (mouse plasma), 5 hours
# GSH stability = type: physicochemical; settings: after 48 hours
# Experimental: Stability was determined in the presence of PBS pH […] and 50 μM glutathione with 0.1% DMSO. Each compound was prepared in duplicate on six separate plates and allowed to equilibrate at room temperature with a 250 rpm orbital shake for 48 hours. One plate was removed at each time point (0, 2, 4, 8, 24, and 48 hours). […] Additionally, to the remaining material at each time point, acetonitrile was added to force dissolution of compound (to test for recovery of compound). An aliquot of this was also analyzed by UPLC-MS.
# Experimental for panel of 311 kinases: Briefly, a selection of compounds was screened against a panel of kinases at a single concentration of 10 μM. […] This was completed utilizing one of two assays depending on the kinase being examined.
# Test compounds were dissolved in and diluted with dimethylsulfoxide (DMSO) to generate a 100× sample solution. These were then diluted to 4× sample solutions in assay buffer to make the final test compound solutions. Reference compounds for assay control were prepared similarly.
# A solution of IMAP binding reagent (IMAP Screening Express kit; Molecular Devices) (60 μL) was added to each well and incubated for 30 minutes.
# A solution of termination buffer (QuickScout Screening assist MSA; Carna Biosciences) (60 μL) was added to each well. The entire reaction mixture was then applied to a LabChip3000 system (Caliper Life Science) and the product and substrate peptide peaks were separated and quantified.
# Experimental for physchem: Solubility was determined in phosphate buffered saline (PBS) pH 7.4 with 1% DMSO. Each compound was prepared in duplicate at 100 μM in both 100% DMSO and PBS with 1% DMSO. Compounds were allowed to equilibrate at room temperature with a 250 rpm orbital shake for 24 hours.
compound,measurement,setting,value
"COc1ccccc1C1C2=C(CC(C)(C)CC2=O)Nc2n[nH]c(C(F)(F)F)c21 (racemic) [racemic probe, 4-(2-methoxyphenyl)-7,7-dimethyl-3-(trifluoromethyl)-6,7,8,9-tetrahydro-2H-pyrazolo[3,4-b]quinolin-5(4H)-one]","Mouse microsomes, % remaining",[1],< 1%
Cc1[nH]nc2c1C(c1ccccc1)(C(F)(F)F)C1=C(CC(C)(C)CC1=O)N2 (centres unmarked) [Compound 83],IC50,GSK3α [2],< 0.1 µM
same,solubility,physchem,410 µM
same,"fraction unbound at 5 h, 5 μM",in vitro,0.102
same,Microsomal stability 60 min,[1],51.5
"Cc1c[nH]c(-c2cnc(NCCNc3ccc(C#N)cn3)nc2-c2ccc(Cl)cc2Cl)n1 [CHIR99021, reference compound]",Number of kinases inhibited greater than 50% at 10 μM,"panel of 311 kinases; panel of 311 kinases, 10 μM",21
Cc1[nH]nc2c1C(C1CC1)C1=C(CC(C)(C)CC1=O)N2 (centres unmarked) [Compound 43],IC50,GSK3β [3],1 to 5 µM
same,EC50,[4],> 50 µM
same,IC50,GSK3β [5],1 to 5 µM
same,EC50,TCF/LEF reporter,> 25 µM
same,EC50,phospho-Tau (Ser199),> 30 µM
same,IC50,GSK3α [6],1 to 5 µM
CC1(C)CC(=O)C2=C(C1)Nc1n[nH]c(C(F)(F)F)c1C2c1cccc(F)c1C(F)(F)F (centres unmarked) [Compound 63],EC50,[4],3.34 µM
same,EC50,TCF/LEF reporter,4.83 µM
same,EC50,phospho-Tau (Ser199),1.38 µM
same,IC50,GSK3α [2],< 0.1 µM
"CC1(C)CC(=O)C2=C(C1)Nc1n[nH]c(C(F)(F)F)c1C2(C)c1ccccc1 (racemic) [Compound 70, 4,7,7-trimethyl-4-phenyl-3-(trifluoromethyl)-6,7,8,9-tetrahydro-2H-pyrazolo[3,4-b]quinolin-5(4H)-one]",GSK3β fold selectivity,GSK3β [7],5 fold
same,Morphological AML differentiation (May-Grunwald Giemsa),AML cell lines,induces morphological evidence of AML (acute myeloid leukemia) differentiation
same,Morphological AML differentiation (May-Grunwald Giemsa),AML cell lines; listed as compound 70,demonstrated cellular differentiation
same,"Pharmacokinetic profile (systemic exposure, brain distribution) compared to CHIR99021",[8],improved pharmacokinetic profile
same,"Amphetamine-induced hyperactivity, i.p.",[9]; systemic intraperitoneal injection,attenuate amphetamine-induced hyperactivity
same,AML differentiation by GE-HTS signature,HL-60 and U937 cells,induces AML (acute myeloid leukemia) differentiation by GE-HTS signature; also recorded: induced a gene expression signature in AML cell lines consistent with myeloid differentiation
COc1ccccc1[C@@H]1C2=C(CC(C)(C)CC2=O)Nc2n[nH]c(C)c21 [Compound 22],Neurogenesis,human iPSC-NPCs,promoted neurogenesis
same,"Amphetamine-induced hyperactivity, ICV",[9]; intracerebroventricular injection,attenuate amphetamine-induced hyperactivity
same,Mode of inhibition of GSK3β,GSK3β [10],competitive inhibition
"COc1ccccc1[C@@H]1C2=C(CC(C)(C)CC2=O)Nc2n[nH]c(C(F)(F)F)c21 [Compound 54, (R)-4-(2-methoxyphenyl)-7,7-dimethyl-3-(trifluoromethyl)-6,7,8,9-tetrahydro-2H-pyrazolo[3,4-b]quinolin-5(4H)-one]",recovery at 48 h,"PBS stability; PBS, pH 7.4, after 48 hours of incubation, read-out: PBS stability, % still present (acetonitrile recovery)",> 95%
same,Concentration in PBS (0.1% DMSO) over time,"PBS stability; over 48 hours, reflects kinetic solubility",about 200%
same,Percent of the kinome (311 kinases) inhibited,panel of 311 kinases,2.6%
same,Microsomal Stability,[1]; M,M: 0%
same,Plasma stability % remaining,[11],99%
same,"Glutathione (GSH) stability, % remaining",GSH stability,99%
same,Mode of inhibition of GSK3β,GSK3β [10],ATP-competitive inhibition
Cc1[nH]nc2c1C(C)(c1ccccc1)C1=C(CC(C)(C)CC1=O)N2 (centres unmarked) [Compound 67],GSK3α fold selectivity,GSK3α [2]; GSK3α over GSK3β,5.2 fold
same,"Mouse microsomes, % remaining",[1],32%
same,Microsomal stability 60 min,[1],32
